The text below walks through data of ChEMBL document CHEMBL1275321, “Synthesis and antitumor activity of novel 6-aryl and 6-alkylpyrazolo[3,4-d]pyrimidin-4-one derivatives” (Eur J Med Chem, 2010).

The structures appear in SMILES notation. In brackets after ≈: the same amount, converted by molar mass.

The test system of this assay is HCT-116. Put plainly: Cytotoxicity against human HCT116 cells after 48 hrs by sulforhodamine B assay. The format is functional, cell-based. As to conditions: HCT-116, 48 h. A general note: In SRB staining, fixed cells bind dye roughly in proportion to their protein.

A word on the IC50: it is the concentration needed to halve the response being measured. Low readings indicate greater potency in that assay, high ones weaker potency in that assay. Regarding `CSc1nn(-c2ccccc2)c2c1C(=O)NC(c1ccccc1)N2` (configuration not stated), the IC50 was 2.4 µg/mL (≈ 7.13 µM). Consider `CSc1nn(-c2ccccc2)c2nc(-c3cccc([N+](=O)[O-])c3)[nH]c(=O)c12`, for which the IC50 came out at 0.67 µg/mL (≈ 1.77 µM).

Compound `COc1ccc(NCc2nc3c(c(SC)nn3-c3ccccc3)c(=O)[nH]2)cc1` had an IC50 of 2.7 µg/mL (≈ 6.86 µM). The result for `CSc1nn(-c2ccccc2)c2nc(CNc3ccc(S(N)(=O)=O)cc3)[nH]c(=O)c12` reads 3.09 µg/mL (≈ 6.98 µM); that for `CSc1nn(-c2ccccc2)c2nc(CCNC3CCCCC3)[nH]c(=O)c12`, 0.47 µg/mL (≈ 1.23 µM). `CSc1nn(-c2ccccc2)c2nc(CCNc3ccccc3)[nH]c(=O)c12`: the IC50 came to 1.34 µg/mL (≈ 3.55 µM).

In the case of `CSc1nn(-c2ccccc2)c2nc(CCNc3ccc(S(N)(=O)=O)cc3)[nH]c(=O)c12`, the IC50 came to 2.82 µg/mL (≈ 6.18 µM).
